Read-outs that look alike come from different tables or passages of the source.
System: SARS-CoV-2 strain USA-WA1/2020
Test: microbe, parasite or virus in culture
Type: cell-based
Conditions: Severe acute respiratory syndrome coronavirus 2, HeLa-ACE2, 24 h, HeLa-ACE2 cells, SARS-CoV-2 infection, 24 h, read-out: EC50, uM (Hela)

Compound | EC50 (class symbols) [µM] | EC50 (cells given as a bound) [µM]
CC(C)C[C@H](NC(=O)OCc1ccc(F)cc1)C(=O)N[C@@H](C[C@@H]1CCNC1=O)C(=O)COc1c(F)c(F)cc(F)c1F [Compound 23, 4-fluorobenzyl ((S)-4-methyl-1-oxo-1-(((S)-3-oxo-1-((S)-2-oxopyrrolidin-3-yl)-4-(2,3,5,6-tetra-fluorophenoxy)butan-2-yl)amino)pentan-2-yl)carbamate] | 0.2 to 0.5 | 
CC(C)C[C@H](NC(=O)c1ccc2c(c1)OCO2)C(=O)N[C@@H](C[C@@H]1CCNC1=O)C(=O)COc1c(F)c(F)cc(F)c1F [Compound 24, N-((S)-4-methyl-1-oxo-1-(((S)-3-oxo-1-((S)-2-oxopyrrolidin-3-yl)-4-(2,3,5,6-tetrafluorophenoxy)butan-2-yl)amino)pentan-2-yl)benzo[d][l,3]dioxole-5-carboxamide] | 0.2 to 0.5 | 
CC(C)C[C@H](NC(=O)C1CCN(C(=O)C2CCCC2)CC1)C(=O)N[C@@H](C[C@@H]1CCNC1=O)C(=O)COc1c(F)c(F)cc(F)c1F [Compound 25, l-(cyclopentane-carbonyl)-N-((S)-4-methyl-1-oxo-1-(((S)-3-oxo-1-((S)-2-oxopyrrolidin-3-yl)-4-(2,3,5,6-tetrafluorophenoxy)butan-2-yl)amino)pentan-2-yl)piperidine-4-carboxamide] | 0.5 to 1 | 
CC(C)C[C@H](NC(=O)[C@H]1CCCO1)C(=O)N[C@@H](C[C@@H]1CCNC1=O)C(=O)COc1c(F)c(F)cc(F)c1F [Compound 26, (R)-N-((S)-4-methyl-1-oxo-1-(((S)-3-oxo-1-((S)-2-oxopyrrolidin-3-yl)-4-(2,3,5,6-tetrafluorophenoxy)butan-2-yl)amino)pentan-2-yl)tetrahydrofuran-2-carboxamide] | 0.2 to 0.5 | 
O=C(N[C@@H](C[C@@H]1CCNC1=O)C(=O)COc1c(F)c(F)cc(F)c1F)C1CCN(C(=O)C2CCCC2)CC1 [Compound 27, l-(cyclopentane-carbonyl)-N-((S)-3-oxo-1-((S)-2-oxopyrrolidin-3-yl)-4-(2,3,5,6-tetrafluorophenoxy)butan-2-yl)piperidine-4-carboxamide] |  | > 1
CC(C)C[C@H](NC(=O)c1cc2cnccc2[nH]1)C(=O)N[C@@H](C[C@@H]1CCNC1=O)C(=O)COc1c(F)c(F)cc(F)c1F [Compound 29, N-((S)-4-methyl-1-oxo-1-(((S)-3-oxo-1-((S)-2-oxopyrrolidin-3-yl)-4-(2,3,5,6-tetrafluorophenoxy)butan-2-yl)amino)pentan-2-yl)-1H-pyrrolo[3,2-c]pyridine-2-carboxamide] | < 0.05 | 
O=C(Nc1ccccc1)C(=O)N[C@@H](CC1CC1)C(=O)N[C@@H](C[C@@H]1CCNC1=O)C(=O)COc1c(F)c(F)cc(F)c1F [Compound 30, N1-((S)-3-cyclopropyl-1-oxo-1-(((S)-3-oxo-1-((S)-2-oxopyrrolidin-3-yl)-4-(2,3,5,6-tetrafluorophenoxy)butan-2-yl)amino)propan-2-yl)-N2-phenyloxalamide] | < 0.05 | 
O=C(Nc1ccccc1)C(=O)N[C@@H](CC1CCC1)C(=O)N[C@@H](C[C@@H]1CCNC1=O)C(=O)COc1c(F)c(F)cc(F)c1F [Compound 31, N1-((S)-3-cyclobutyl-1-oxo-1-(((S)-3-oxo-1-((S)-2-oxopyrrolidin-3-yl)-4-(2,3,5,6-tetra-fluorophenoxy)butan-2-yl)amino)propan-2-yl)-N2-phenyloxalamide] | < 0.05 | 
CC(C)C[C@H](NC(=O)C(=O)Nc1ccccc1C(F)(F)F)C(=O)N[C@@H](C[C@@H]1CCNC1=O)C(=O)COc1c(F)c(F)cc(F)c1F [Compound 32] | < 0.05 | 
CC(C)C[C@H](NC(=O)C(=O)Nc1ccccc1C(C)(C)C)C(=O)N[C@@H](C[C@@H]1CCNC1=O)C(=O)COc1c(F)c(F)cc(F)c1F [Compound 33, N1-(2-(tert-butyl)phenyl)-N2-((S)-4-methyl-1-oxo-1-(((S)-3-oxo-1-((S)-2-oxopyrrolidin-3-yl)-4-(2,3,5,6-tetrafluorophenoxy)butan-2-yl)amino)pentan-2-yl)oxalamide] | < 0.05 | 
CC(C)C[C@H](NC(=O)C(=O)Nc1ccc2ccccc2c1)C(=O)N[C@@H](C[C@@H]1CCNC1=O)C(=O)COc1c(F)c(F)cc(F)c1F [Compound 34, N1-((S)-4-methyl-1-oxo-1-(((S)-3-oxo-1-((S)-2-oxopyrrolidin-3-yl)-4-(2,3,5,6-tetrafluorophenoxy)butan-2-yl)amino)pentan-2-yl)-N2-(naphthalen-2-yl)oxalamide] | 0.05 to 0.2 | 
O=C(Nc1ccccc1)C(=O)N[C@@H](CC1CCCCC1)C(=O)N[C@@H](C[C@@H]1CCNC1=O)C(=O)COc1c(F)c(F)cc(F)c1F [Compound 35, N1-((S)-3-cyclohexyl-1-oxo-1-(((S)-3-oxo-1-((S)-2-oxopyrrolidin-3-yl)-4-(2,3,5,6-tetrafluorophenoxy)butan-2-yl)amino)propan-2-yl)-N2-phenyloxalamide] | < 0.05 | 
CC(C)CC[C@H](NC(=O)C(=O)Nc1ccccc1)C(=O)N[C@@H](C[C@@H]1CCNC1=O)C(=O)COc1c(F)c(F)cc(F)c1F [Compound 36, N1-((S)-5-methyl-1-oxo-1-(((S)-3-oxo-1-((S)-2-oxopyrrolidin-3-yl)-4-(2,3,5,6-tetrafluorophenoxy)butan-2-yl)amino)hexan-2-yl)-N2-phenyloxalamide] | < 0.05 | 
Cc1ccccc1NC(=O)C(=O)N[C@@H](CC(C)C)C(=O)N[C@@H](C[C@@H]1CCNC1=O)C(=O)COc1c(F)c(F)cc(F)c1F [Compound 37, N1-((S)-4-methyl-1-oxo-1-(((S)-3-oxo-1-((S)-2-oxopyrrolidin-3-yl)-4-(2,3,5,6-tetrafluoro-phenoxy)butan-2-yl)amino)pentan-2-yl)-N2-(o-tolyl)oxalamide] | < 0.05 | 
CC(C)C[C@H](NC(=O)C(=O)Nc1ccc(F)cc1)C(=O)N[C@@H](C[C@@H]1CCNC1=O)C(=O)COc1c(F)c(F)cc(F)c1F [Compound 38, N1-(4-fluorophenyl)-N2-((S)-4-methyl-1-oxo-1-(((S)-3-oxo-1-((S)-2-oxopyrrolidin-3-yl)-4-(2,3,5,6-tetra-fluorophenoxy)butan-2-yl)amino)pentan-2-yl)oxalamide] | < 0.05 | 
CC(C)C[C@H](NC(=O)C(=O)Nc1ccc(Cl)cc1)C(=O)N[C@@H](C[C@@H]1CCNC1=O)C(=O)COc1c(F)c(F)cc(F)c1F [Compound 39, N1-(4-chlorophenyl)-N2-((S)-4-methyl-1-oxo-1-(((S)-3-oxo-1-((S)-2-oxopyrrolidin-3-yl)-4-(2,3,5,6-tetrafluorophenoxy)butan-2-yl)amino)pentan-2-yl)oxalamide] | 0.05 to 0.2 | 
CC(C)C[C@H](NC(=O)CNc1ccccc1)C(=O)N[C@@H](C[C@@H]1CCNC1=O)C(=O)COc1c(F)c(F)cc(F)c1F [Compound 40, (S)-4-methyl-N-((S)-3-oxo-1-((S)-2-oxopyrrolidin-3-yl)-4-(2,3,5,6-tetrafluorophenoxy)butan-2-yl)-2-(2-(phenylamino)-acetamido)pentanamide] | < 0.05 | 
CC(C)C[C@H](NC(=O)C(=O)NCCc1ccccc1)C(=O)N[C@@H](C[C@@H]1CCNC1=O)C(=O)COc1c(F)c(F)cc(F)c1F [Compound 41, N1-((S)-4-methyl-1-oxo-1-(((S)-3-oxo-1-((S)-2-oxopyrrolidin-3-yl)-4-(2,3,5,6-tetrafluorophenoxy)butan-2-yl)amino)pentan-2-yl)-N2-phenethyloxalamide] | 0.05 to 0.2 | 
CC(C)C[C@H](NC(=O)C(=O)NCc1ccccc1)C(=O)N[C@@H](C[C@@H]1CCNC1=O)C(=O)COc1c(F)c(F)cc(F)c1F [Compound 42, N1-benzyl-N2-((S)-4-methyl-1-oxo-1-(((S)-3-oxo-1-((S)-2-oxopyrrolidin-3-yl)-4-(2,3,5,6-tetrafluoro-phenoxy)butan-2-yl)amino)pentan-2-yl)oxalamide] | 0.05 to 0.2 | 
CC(C)C[C@H](NC(=O)C(=O)Nc1cccc(F)c1)C(=O)N[C@@H](C[C@@H]1CCNC1=O)C(=O)COc1c(F)c(F)cc(F)c1F [Compound 43, N1-(3-fluorophenyl)-N2-((S)-4-methyl-1-oxo-1-(((S)-3-oxo-1-((S)-2-oxopyrrolidin-3-yl)-4-(2,3,5,6-tetrafluorophenoxy)butan-2-yl)amino)pentan-2-yl)oxalamide] | 0.05 to 0.2 | 
O=C(Nc1ccccc1)C(=O)N[C@@H](CC1CCCC1)C(=O)N[C@@H](C[C@@H]1CCNC1=O)C(=O)COc1c(F)c(F)cc(F)c1F [Compound 44, N1-((S)-3-cyclopentyl-1-oxo-1-(((S)-3-oxo-1-((S)-2-oxopyrrolidin-3-yl)-4-(2,3,5,6-tetrafluorophenoxy)butan-2-yl)amino)propan-2-yl)-N2-phenyloxalamide] | < 0.05 | 
CC(C)C[C@H](NC(=O)C(=O)Nc1ccccn1)C(=O)N[C@@H](C[C@@H]1CCNC1=O)C(=O)COc1c(F)c(F)cc(F)c1F [Compound 45, N1-((S)-4-methyl-1-oxo-1-(((S)-3-oxo-1-((S)-2-oxopyrrolidin-3-yl)-4-(2,3,5,6-tetrafluorophenoxy)butan-2-yl)amino)pentan-2-yl)-N2-(pyridin-2-yl)oxalamide] | 0.05 to 0.2 | 
CC(C)C[C@H](NC(=O)C(=O)Nc1ccccc1Cl)C(=O)N[C@@H](C[C@@H]1CCNC1=O)C(=O)COc1c(F)c(F)cc(F)c1F [Compound 46, N1-(2-chlorophenyl)-N2-((S)-4-methyl-1-oxo-1-(((S)-3-oxo-1-((S)-2-oxopyrrolidin-3-yl)-4-(2,3,5,6-tetrafluorophenoxy)butan-2-yl)amino)pentan-2-yl)oxalamide] | < 0.05 | 
CC(C)C[C@H](NC(=O)C(=O)Nc1c(F)cccc1F)C(=O)N[C@@H](C[C@@H]1CCNC1=O)C(=O)COc1c(F)c(F)cc(F)c1F [Compound 47, N1-(2,6-difluorophenyl)-N2-((S)-4-methyl-1-oxo-1-(((S)-3-oxo-1-((S)-2-oxopyrrolidin-3-yl)-4-(2,3,5,6-tetrafluorophenoxy)butan-2-yl)amino)pentan-2-yl)oxalamide] | < 0.05 | 
